Measurements taken from patent US11744824B2, “2-amino-3-carbonyl imidazopyridine and pyrazolopyridine compounds” (1ST Biotherapeutics, Inc., priority 2020, dated 2023).

Legend:
[1] = target: GST-tagged recombinant human RIP2 (Homo sapiens (Human), UniProt O43353); assay: RIP2 Kinase Assay (ADP-Glo); type: biochemical; conditions: in vitro kinase activity, ATP 25 μM
Procedure: GST-tagged recombinant human RIP2 (25 ng) is incubated with 5 μL of compounds (0.5% DMSO), 5 μL of MBP (0.5 μg/μl) and 5 μL of ATP (25 μM) in buffer (40 mM Tris, 7.5; 20 mM MgCl2; 0.1 mg/ml BSA; 50 μM DTT). The assay was started by incubating the reaction mixture in a 96-well plate at 30° C. for 60 minutes. After the incubation, 25 μL ADP-Glo reagent was added, and the reaction was incubated at 30° C. for 40 minutes to stop the reaction and degrade residual ATP. The ADP product was then converted to ATP by adding 50 μL per well of detection reagent. Luminescence was detected after 30 minutes room temperature incubation with the Molecular device I3X plate reader. The IC50 values were calculated from a series of percent inhibition values determined at a range of inhibitor concentration using software routines as implemented in the GraphPad Prism 7 software and SigmaPlot 13.0.

[2] = target: His-tagged recombinant human ABL1 (Homo sapiens (Human), UniProt P00519); assay: c-Abl Kinase Assay (ADP-Glo); type: biochemical; conditions: in vitro kinase activity, ATP 25 μM
Procedure: ADP-Glo assay kit was purchased from Promega. Magnesium chloride (MgCl2), bovine serum albumin (BSA), ethylene glycol-bis(β-aminoethyl ether)-N,N,N′,N′-tetraacetic acid (EGTA), tween-20, 1,4-dithiothreitol (DTT) and dimethyl sulfoxide (DMSO) were purchased from Sigma-Aldrich. HEPES buffer was purchased from Gibco. ABL1 kinase and Abltide were purchased from Signalchem.
c-Abl kinase activity was measured by Promega's ADP-Glo™ Assay. In this assay, His-tagged recombinant human ABL1 (0.25 ng/μl) is incubated with 5 μL of compounds (0.5% DMSO), 5 μL of Abltide (0.01 μg/μl) and 5 μL of ATP (25 μM) in buffer (50 mM HEPES, 7.5; 10 mM MgCl2; 1 mM EGTA; 0.05% BSA; 0.01% Tween-20; 2 mM DTT). The assay was started by incubating the reaction mixture in a 96-well plate at 30° C. for 30 min. After the incubation, 25 μL ADP-Glo reagent was added and the reaction was incubated at room temperature for 40-min to stop the reaction and degrade residual ATP. The ADP product was then converted to ATP by adding 50 μL per well of detection reagent. Luminescence was detected after 30-min room temperature incubation with the Molecular device I3X plate reader. The IC50 values were calculated from a series of percent inhibition values determined at a range of inhibitor concentration using software routines as implemented in the GraphPad Prism 7 software and Sigma Plot 13.0.

[3] = test system: IL-6 secretion in BV-2 mouse microglia cells; assay: IL-6 Secretion in BV-2 Cell (L18-MDP stimulated, ELISA); type: cell-based; conditions: BV-2 cells, 10 μg/ml L18-MDP, 24 hr
Procedure: IL-6 Secretion in BV-2 Cell
BV-2 mouse microglia cells were kindly provided from Dr. Bae in Korea Institute of Science and Technology (KIST). BV-2 cells were thawed and suspended in Dulbecco's modified eagle medium (DMEM) supplemented with 10% fetal bovine serum (FBS) and 1% Penicillin/Streptomycin. Cells were seeded into 96 well plates at 2×10^4 cells/well and allowed to attach for 24 hr. On the day of the experiment, various concentration of FB compounds was treated, and cells were stimulated with 10 μg/ml L18-MDP. After 24 hr incubation, supernatant was collected for cytokine assay.
Absorbance at 450 nm was measured using SpectraMax i3X microplate reader (Molecular Device). Values of media-only wells were subtracted and % inhibition for each compound concentration relative to the DMSO/L18-MDP-treated controls (100%) was calculated. The IC50 values were calculated from a series of percent activity values using software as implemented in the GraphPad Prism 7 software and SigmaPlot 13.0.

Chain of GST-tagged recombinant human RIP2 (O43353 whole entry): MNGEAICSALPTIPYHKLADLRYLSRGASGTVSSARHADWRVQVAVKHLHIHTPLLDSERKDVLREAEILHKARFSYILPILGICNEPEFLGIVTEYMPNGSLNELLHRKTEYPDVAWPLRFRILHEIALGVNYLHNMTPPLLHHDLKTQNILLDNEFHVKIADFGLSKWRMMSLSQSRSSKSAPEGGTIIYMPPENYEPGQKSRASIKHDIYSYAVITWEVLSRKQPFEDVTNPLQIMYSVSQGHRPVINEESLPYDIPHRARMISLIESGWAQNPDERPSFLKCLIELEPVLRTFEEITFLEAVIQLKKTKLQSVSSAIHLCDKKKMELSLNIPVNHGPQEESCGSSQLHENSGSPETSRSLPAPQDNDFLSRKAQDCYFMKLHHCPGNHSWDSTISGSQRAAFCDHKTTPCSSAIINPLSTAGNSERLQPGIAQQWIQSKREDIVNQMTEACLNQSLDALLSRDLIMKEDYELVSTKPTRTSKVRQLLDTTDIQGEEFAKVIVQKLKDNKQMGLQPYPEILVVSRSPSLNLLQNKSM
Chain of His-tagged recombinant human ABL1 (P00519 whole entry): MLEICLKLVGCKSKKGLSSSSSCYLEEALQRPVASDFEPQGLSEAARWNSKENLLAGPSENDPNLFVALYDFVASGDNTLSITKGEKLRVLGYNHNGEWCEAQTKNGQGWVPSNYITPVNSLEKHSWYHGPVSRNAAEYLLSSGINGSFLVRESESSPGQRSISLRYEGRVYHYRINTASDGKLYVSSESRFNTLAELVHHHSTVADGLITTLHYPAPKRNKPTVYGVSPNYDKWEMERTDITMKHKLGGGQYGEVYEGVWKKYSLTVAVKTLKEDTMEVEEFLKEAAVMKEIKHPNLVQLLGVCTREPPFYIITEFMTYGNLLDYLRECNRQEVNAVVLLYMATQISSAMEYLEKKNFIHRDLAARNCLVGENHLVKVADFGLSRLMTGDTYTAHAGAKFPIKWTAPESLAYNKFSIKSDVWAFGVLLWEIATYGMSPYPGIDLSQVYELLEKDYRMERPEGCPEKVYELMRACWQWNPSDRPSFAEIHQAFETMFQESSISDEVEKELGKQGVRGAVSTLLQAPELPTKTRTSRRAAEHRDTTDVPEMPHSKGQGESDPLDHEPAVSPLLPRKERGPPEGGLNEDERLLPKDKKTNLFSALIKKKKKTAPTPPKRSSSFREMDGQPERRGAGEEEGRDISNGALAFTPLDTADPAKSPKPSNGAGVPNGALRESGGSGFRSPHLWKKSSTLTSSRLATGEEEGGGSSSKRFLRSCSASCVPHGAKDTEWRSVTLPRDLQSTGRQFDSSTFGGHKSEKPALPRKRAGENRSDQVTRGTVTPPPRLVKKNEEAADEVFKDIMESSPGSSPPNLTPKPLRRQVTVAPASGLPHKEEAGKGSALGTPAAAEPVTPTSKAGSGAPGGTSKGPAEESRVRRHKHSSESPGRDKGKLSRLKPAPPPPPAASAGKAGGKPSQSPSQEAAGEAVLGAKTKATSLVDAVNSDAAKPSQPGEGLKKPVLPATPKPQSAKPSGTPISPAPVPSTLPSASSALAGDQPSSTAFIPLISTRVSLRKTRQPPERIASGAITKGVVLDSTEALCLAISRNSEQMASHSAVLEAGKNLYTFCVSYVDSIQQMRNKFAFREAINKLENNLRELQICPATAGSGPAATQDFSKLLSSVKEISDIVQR

SMILES | IC50 [1] [nM] | IC50 [2] [nM] | IC50 [3] [nM]
CN(C)c1c(F)c(Cl)c(-c2ccc3nc(N)c(C(=O)[C@@H]4C[C@@H]4F)n3c2)c2cn[nH]c12 [Example 65] | > 1000 | – | > 1000
Cc1c(-c2ccc3nc(N)c(C(=O)C4CNC4)n3c2)cnc2[nH]ccc12 [Example 82] | 1 to 100 | – | > 1000
Nc1nc2ccc(-c3cnc4[nH]ccc4c3Cl)cn2c1C(=O)C1CNC1 [Example 83] | 1 to 100 | – | > 1000
Cc1c(-c2ccc3nc(N)c(C(=O)c4ncccn4)n3c2)cnc2[nH]ccc12 [Example 85] | 1 to 100 | – | 501 to 1000
Nc1nc2ccc(-c3cnc4[nH]ccc4c3)cn2c1C(=O)C1CNC1 [Example 86] | 1 to 100 | – | > 1000
Cc1c(-c2ccc3nc(N)c(C(=O)[C@@H]4C[C@@H]4F)n3c2)ccc2[nH]ccc12 [Example 89, (2-amino-6-(4-methyl-1H-indol-5-yl)imidazo[1,2-a]pyridin-3-yl)((1S,2S)-2-fluorocyclopropyl)methanone] | 1 to 100 | 1 to 100 | 101 to 500
Cc1c(-c2ccc3nc(N)c(C(=O)[C@@H]4C[C@@H]4F)n3c2)ccc2[nH]ncc12 [Example 90] | 1 to 100 | – | 501 to 1000
Cc1c(-c2ccc3nc(N)c(C(=O)C4CCNC4)n3c2)cnc2[nH]ccc12 (stereo not drawn) [Example 94] | 1 to 100 | – | > 1000
Nc1nc2ccc(-c3cnc4[nH]ccc4c3Cl)cn2c1C(=O)C1CCNC1 (stereo not drawn) [Example 95] | 1 to 100 | – | > 1000
Cc1ccc2[nH]ccc2c1-c1ccc2nc(N)c(C(=O)[C@@H]3C[C@@H]3F)n2c1 [Example 100] | 1 to 100 | – | 101 to 500
Nc1nc2ccc(-c3c(F)ccc4[nH]ccc34)cn2c1C(=O)[C@@H]1C[C@@H]1F [Example 101] | 1 to 100 | – | 501 to 1000
Nc1nc2ccc(-c3ccnc4[nH]ccc34)cn2c1C(=O)[C@@H]1C[C@@H]1F [Example 104] | 1 to 100 | 1 to 100 | 101 to 500
Nc1nc2ccc(-c3c[nH]c4ccccc34)cn2c1C(=O)[C@@H]1C[C@@H]1F [Example 105] | 1 to 100 | 1 to 100 | 101 to 500
Nc1nc2ccc(-c3c[nH]c4ncccc34)cn2c1C(=O)[C@@H]1C[C@@H]1F [Example 110] | 1 to 100 | – | 501 to 1000
Nc1nc2ccc(-c3cc(F)cc4[nH]ccc34)cn2c1C(=O)[C@@H]1C[C@@H]1F [Example 113] | 1 to 100 | 1 to 100 | 101 to 500
Cc1c(F)cc2[nH]ccc2c1-c1ccc2nc(N)c(C(=O)[C@@H]3C[C@@H]3F)n2c1 [Example 114] | 1 to 100 | 1 to 100 | 101 to 500
Nc1nc2ccc(-c3ccnc4ccccc34)cn2c1C(=O)[C@@H]1C[C@@H]1F [Example 115] | 1 to 100 | – | 101 to 500
Nc1nn2ccc(-c3cccc4[nH]ccc34)cc2c1C(=O)C1CC1 [Example 152] | 1 to 100 | – | 101 to 500
Cc1c(F)cc2[nH]ncc2c1-c1ccn2nc(N)c(C(=O)C3CC3)c2c1 [Example 153, (2-amino-5-(6-fluoro-5-methyl-1H-indazol-4-yl)pyrazolo[1,5-a]pyridin-3-yl)(cyclopropyl)methanone] | 1 to 100 | – | 501 to 1000
Cc1c(F)cccc1-c1ccn2nc(N)c(C(=O)C3CC3)c2c1 [Example 154] | 1 to 100 | – | > 1000

More lines, now with the values ahead:

IC50 [1] [nM] | IC50 [2] [nM] | IC50 [3] [nM] | SMILES
1 to 100 | 1 to 100 | 501 to 1000 | Cc1c(F)cccc1-c1ccc2nc(N)c(C(=O)[C@@H]3C[C@@H]3F)n2c1 [Example 5]
1 to 100 | 1 to 100 | 101 to 500 | Cc1c(-c2ccc3nc(N)c(C(=O)[C@@H]4C[C@@H]4F)n3c2)cnc2[nH]ccc12 [Example 40]
1 to 100 | 1 to 100 | 101 to 500 | Nc1nc2ccc(-c3ccc4[nH]ccc4c3)cn2c1C(=O)[C@@H]1C[C@@H]1F [Example 51]
1 to 100 | 1 to 100 | 101 to 500 | Nc1nc2ccc(-c3cccc4[nH]ccc34)cn2c1C(=O)[C@@H]1C[C@@H]1F [Example 57]
1 to 100 | 101 to 500 | 1 to 100 | Cc1c(F)cc2[nH]ncc2c1-c1ccc2nc(N)c(C(=O)[C@@H]3C[C@@H]3F)n2c1 [Example 60]
1 to 100 | – | 101 to 500 | Nc1nc2ccc(-c3c(Cl)c(F)cc4[nH]ncc34)cn2c1C(=O)[C@@H]1C[C@@H]1F [Example 64]
1 to 100 | – | 501 to 1000 | Nc1nc2ccc(-c3ccc4[nH]ccc4c3)cn2c1C(=O)c1ccccn1 [Example 67]
1 to 100 | – | 101 to 500 | Nc1nc2ccc(-c3cnc4[nH]ccc4c3)cn2c1C(=O)c1ccccn1 [Example 68]
1 to 100 | – | 501 to 1000 | Nc1nc2ccc(-c3cnc4[nH]ccc4c3F)cn2c1C(=O)[C@@H]1C[C@@H]1F [Example 69]
1 to 100 | – | 101 to 500 | Nc1nc2ccc(-c3ccc4[nH]ccc4c3Cl)cn2c1C(=O)[C@@H]1C[C@@H]1F [Example 73]
1 to 100 | – | 101 to 500 | Cc1c(-c2ccc3nc(N)c(C(=O)c4ccccn4)n3c2)cnc2[nH]ccc12 [Example 74]
1 to 100 | – | 501 to 1000 | Nc1nc2ccc(-c3cnc4[nH]ccc4c3Cl)cn2c1C(=O)c1ccccn1 [Example 75]
1 to 100 | – | > 1000 | Nc1nc2ccc(-c3cnc4[nH]ccc4c3)cn2c1C(=O)c1ncccn1 [Example 79]
1 to 100 | – | 501 to 1000 | Cc1c(-c2ccc3nc(N)c(C(=O)c4ccncn4)n3c2)cnc2[nH]ccc12 [Example 84]
